Read-outs that look alike come from different tables or passages of the source.
Legend:
Staphylococcus aureus = assay: Modified disc diffusion method, boron compounds; type: cell-based; parameters: key: + sign indicates that the boron compounds had antimicrobial activity.; − sign indicates that there is no antimicrobial activity; conditions: disc immersed in pulverized compound; 36±1° C., 24 hours
Aspergillus spp. = assay: Modified disc diffusion method, boron compounds; type: cell-based; parameters: key: + sign indicates that the boron compounds had antimicrobial activity.; − sign indicates that there is no antimicrobial activity; conditions: disc immersed in pulverized compound; 25±1° C., 72 hours
Fusarium oxysporum = assay: Modified disc diffusion method, boron compounds; type: cell-based; parameters: key: + sign indicates that the boron compounds had antimicrobial activity.; − sign indicates that there is no antimicrobial activity; conditions: disc immersed in pulverized compound; 25±1° C., 72 hours
Botrytis cinerea = assay: Modified disc diffusion method, boron compounds; type: cell-based; parameters: key: + sign indicates that the boron compounds had antimicrobial activity.; − sign indicates that there is no antimicrobial activity; conditions: disc immersed in pulverized compound; 25±1° C., 72 hours
Escherichia coli = assay: Modified disc diffusion method, boron compounds; type: cell-based; parameters: key: + sign indicates that the boron compounds had antimicrobial activity.; − sign indicates that there is no antimicrobial activity; conditions: disc immersed in pulverized compound; 36±1° C., 24 hours
Candida albicans = assay: Modified disc diffusion method, boron compounds; type: cell-based; parameters: key: + sign indicates that the boron compounds had antimicrobial activity.; − sign indicates that there is no antimicrobial activity; conditions: disc immersed in pulverized compound; 36±1° C., 48 hours
Pseudomonas aeruginosa = assay: Modified disc diffusion method, boron compounds; type: cell-based; parameters: key: + sign indicates that the boron compounds had antimicrobial activity.; − sign indicates that there is no antimicrobial activity; conditions: disc immersed in pulverized compound; 36±1° C., 24 hours
[1] = tested on: Vancomycin-resistant Enterococcus (VRE); assay: Modified disc diffusion method, boron compounds; type: cell-based; parameters: key: + sign indicates that the boron compounds had antimicrobial activity.; − sign indicates that there is no antimicrobial activity; conditions: disc immersed in pulverized compound; 36±1° C., 24 hours
Penicillium spp. = assay: Modified disc diffusion method, boron compounds; type: cell-based; parameters: key: + sign indicates that the boron compounds had antimicrobial activity.; − sign indicates that there is no antimicrobial activity; conditions: disc immersed in pulverized compound; 25±1° C., 72 hours
[2] = tested on: Methicillin-resistant Staphylococcus aureus (MRSA); assay: Modified disc diffusion method, boron compounds; type: cell-based; parameters: key: + sign indicates that the boron compounds had antimicrobial activity.; − sign indicates that there is no antimicrobial activity; conditions: disc immersed in pulverized compound; 36±1° C., 24 hours
Candida glabrata = assay: Modified disc diffusion method, boron compounds; type: cell-based; parameters: key: + sign indicates that the boron compounds had antimicrobial activity.; − sign indicates that there is no antimicrobial activity; conditions: disc immersed in pulverized compound; 36±1° C., 48 hours
enteric bacteria = conditions: cited from earlier work
[3] = tested on: various bacterial strains; conditions: 0.02% chlorhexidine solution, 10-minute exposure; cited from earlier work
[4] = tested on: humanrhinovirus, coxsackievirus and mengovirus; conditions: binds with ions of metals such as zinc; cited from earlier work
[5] = ingestion of 30 mg twice daily for three weeks; cited from earlier work
adenovirus = conditions: 0.02% chlorhexidine gluconate, 90-minute exposure at room temperature; cited from earlier work
poliovirus = conditions: 0.02% chlorhexidine gluconate, 90-minute exposure at room temperature; cited from earlier work
[6] = tested on: Human adenovirus type 5 Adenoid 75 strain; type: cell-based
[7] = tested on: poliovirus type 1 Chat strain; type: cell-based
Herpesvirus hominis = conditions: 0.02% chlorhexidine gluconate, 90-minute exposure at room temperature; cited from earlier work
E. coli NCIMB 10000 = conditions: cited from earlier work
[8] = tested on: P. aeruginosa NCIMB 10548; conditions: cited from earlier work
Pityrosporum ovale = conditions: cited from earlier work
[9] = tested on: Saccharomyces cerevisiae yeast; conditions: cited from earlier work
[10] = 60 minutes, clean medium, 20° C.

O.O.O.O.O.O.O.O.O.O.[Na+].[Na+].[O-]B1OB2OB([O-])OB(O1)O2 [SB, Sodium Borate]
Antimicrobial activity (inhibition zone) (Staphylococcus aureus): +
Antimicrobial activity (inhibition zone) (Aspergillus spp.): +
Antimicrobial activity (inhibition zone) (Fusarium oxysporum): +
Antimicrobial activity (inhibition zone) (Botrytis cinerea): +
Antimicrobial activity (inhibition zone) (Escherichia coli): +
Antimicrobial activity (inhibition zone) (Candida albicans): +
Antimicrobial activity (inhibition zone) (Pseudomonas aeruginosa): +
Antimicrobial activity (inhibition zone) [1]: +
Antimicrobial activity (inhibition zone) (Penicillium spp.): +
Antimicrobial activity (inhibition zone) [2]: +
Antimicrobial activity (inhibition zone) (Candida glabrata): +

O.O.O.O.O.[Na+].[Na+].[O-]B1OB2OB([O-])OB(O1)O2 [BP, Borax pentahydrate]
Antimicrobial activity (inhibition zone) (Staphylococcus aureus): +
Antimicrobial activity (inhibition zone) (Aspergillus spp.): +
Antimicrobial activity (inhibition zone) (Fusarium oxysporum): +
Antimicrobial activity (inhibition zone) (Botrytis cinerea): +
Antimicrobial activity (inhibition zone) (Escherichia coli): +
Antimicrobial activity (inhibition zone) (Candida albicans): +
Antimicrobial activity (inhibition zone) (Pseudomonas aeruginosa): +
Antimicrobial activity (inhibition zone) [1]: +
Antimicrobial activity (inhibition zone) (Penicillium spp.): +
Antimicrobial activity (inhibition zone) [2]: +
Antimicrobial activity (inhibition zone) (Candida glabrata): +

OB(O)O [boric acid]
antibacterial activity (enteric bacteria): has antibacterial activity

[H]/N=C(\N/C(=N/[H])NCCCCCCNC(=N)NC(=N)Nc1ccc(Cl)cc1)Nc1ccc(Cl)cc1 [chlorhexidine]
inhibition of microorganisms [3]: 4 log

O.O.O.O.[Na+].[O-]B1OO1 [SPT, Sodium perborate tetrahydrate]
Antimicrobial activity (inhibition zone) (Staphylococcus aureus): +
Antimicrobial activity (inhibition zone) (Aspergillus spp.): +
Antimicrobial activity (inhibition zone) (Fusarium oxysporum): +
Antimicrobial activity (inhibition zone) (Botrytis cinerea): +
Antimicrobial activity (inhibition zone) (Escherichia coli): +
Antimicrobial activity (inhibition zone) (Candida albicans): +
Antimicrobial activity (inhibition zone) (Pseudomonas aeruginosa): +
Antimicrobial activity (inhibition zone) [1]: +
Antimicrobial activity (inhibition zone) (Penicillium spp.): +
Antimicrobial activity (inhibition zone) [2]: +
Antimicrobial activity (inhibition zone) (Candida glabrata): +

CC(C)c1cccc(=O)c(O)c1 [hinokitiol]
inhibition of virus proliferation [4]: inhibited proliferation

O.O.O.O.O=BOB1OB(OB=O)OB2OB([O-])OB([O-])OB(O1)O2.[Na+].[Na+] [DOT, Disodium octaborate tetrahydrate]
Antimicrobial activity (inhibition zone) (Staphylococcus aureus): +
Antimicrobial activity (inhibition zone) (Aspergillus spp.): +
Antimicrobial activity (inhibition zone) (Fusarium oxysporum): +
Antimicrobial activity (inhibition zone) (Botrytis cinerea): +
Antimicrobial activity (inhibition zone) (Escherichia coli): +
Antimicrobial activity (inhibition zone) (Candida albicans): +
Antimicrobial activity (inhibition zone) (Pseudomonas aeruginosa): +
Antimicrobial activity (inhibition zone) [1]: +
Antimicrobial activity (inhibition zone) (Penicillium spp.): +
Antimicrobial activity (inhibition zone) [2]: +
Antimicrobial activity (inhibition zone) (Candida glabrata): +

O=BOB(O)OB(O)OB=O [borax, borax (Na2B4O7 10 H2O)]
effect on rheumatism [5]: substantially alleviated rheumatism

N=C(NCCCCCCNC(=N)NC(=N)Nc1ccc(Cl)cc1)NC(=N)Nc1ccc(Cl)cc1.O=C(O)[C@H](O)[C@@H](O)[C@H](O)[C@H](O)CO.O=C(O)[C@H](O)[C@@H](O)[C@H](O)[C@H](O)CO [Chlorhexidine Gluconate, Chlorhexidine gluconate]
activity against virus (adenovirus): ineffective
activity against virus (poliovirus): ineffective
Reduction ratio in virus titer [6]: 4.0 Logarithmic TCID50 ratio
Virus titer with disinfectant [6]: 1.5 Logarithmic TCID50
reduction in virus titer [6]: at least 4 log
Reduction ratio in virus titer ([6]; 1 minute, clean medium, 20° C.): 4.0 Logarithmic TCID50 ratio
Virus titer with disinfectant ([6]; 1 minute, clean medium, 20° C.): 1.5 Logarithmic TCID50
Reduction ratio in virus titer [6, 10]: 4.0 Logarithmic TCID50 ratio
Virus titer with disinfectant [6, 10]: 1.5 Logarithmic TCID50
active against virus ([6]; used directly without being diluted, 20° C., 1 and 60 minute application periods): 99.9%
Virus titer with disinfectant [7]: 2.0 Logarithmic TCID50
reduction in virus titer [7]: at least 4 log
reduction of virus titration (Herpesvirus hominis): more than 99%

Zinc pyrithione
MIC value (E. coli NCIMB 10000): 4.5 µg/mL
MIC value [8]: 13 µg/mL
Reduction ratio in virus titer [6]: 4.0 Logarithmic TCID50 ratio
Virus titer with disinfectant [6]: 1.0 Logarithmic TCID50
active against virus [6]: 99.9%
reduction in virus titer [6]: at least 4 log
antifungal activity (Pityrosporum ovale): has antifungal activity
Reduction ratio in virus titer [7]: 4.5 Logarithmic TCID50 ratio
Virus titer with disinfectant [7]: 1.5 Logarithmic TCID50
reduction in virus titer [7]: at least 4 log
antiyeast activity [9]: has antiyeast activity

Zinc borate [ZB]
Antimicrobial activity (inhibition zone) (Staphylococcus aureus): +
Antimicrobial activity (inhibition zone) (Aspergillus spp.): +
Antimicrobial activity (inhibition zone) (Fusarium oxysporum): +
Antimicrobial activity (inhibition zone) (Botrytis cinerea): +
Antimicrobial activity (inhibition zone) (Escherichia coli): +
Antimicrobial activity (inhibition zone) (Candida albicans): +
Antimicrobial activity (inhibition zone) (Pseudomonas aeruginosa): +
Antimicrobial activity (inhibition zone) [1]: +
Antimicrobial activity (inhibition zone) (Penicillium spp.): +
Antimicrobial activity (inhibition zone) [2]: +
Antimicrobial activity (inhibition zone) (Candida glabrata): +

— US20180244895A1, “ANTIMICROBIAL AND ANTIVIRAL COMPOSITE POLYMER SURFACES” (YEDITEPE UNIVERSITESI, priority 2015, published 2018)
